Test [1] deals with MOLM-14 D835Y cells, FLT3 ITD and FLT3 D835Y. In words: Cell proliferation assay (CellTiter-Glo), MOLM-14 D835Y. The format is cell-based. The note with it: Homo sapiens, 72 h, 3d-Growth, GMean. A digest of the protocol:
(§1)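 Three-day growth at 37 °C, 5% CO2 under compound (1 μM top final, 1:3 dilutions, eight points, 0.2% DMSO), read as ATP luminescence by CellTiter-Glo for IC50. Cells: MOLM-14 with FLT3 ITD plus D835Y or F691L, and IL-3-deprived Ba/F3 transfected with FLT3 ITD/D835Y, 1×10^4 per well.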

Test [2] deals with MOLM-14 F691L cells, FLT3 ITD and FLT3 F691L. In words: Cell proliferation assay (CellTiter-Glo), MOLM-14 F691L. The format is cell-based. The note with it: Homo sapiens, 72 h, 3d-Growth, GMean. A digest of the protocol:
as §1
(In general: ATP-based viability assays read luminescence as a measure of living cells.)

The target in test [3] is T1, BA/F3-FLT3-ITD + D835Y cells (Homo sapiens, UniProt P36888, D835Y, cells depend on it, form not given).
T1 sequence (P36888 1-993 D835Y): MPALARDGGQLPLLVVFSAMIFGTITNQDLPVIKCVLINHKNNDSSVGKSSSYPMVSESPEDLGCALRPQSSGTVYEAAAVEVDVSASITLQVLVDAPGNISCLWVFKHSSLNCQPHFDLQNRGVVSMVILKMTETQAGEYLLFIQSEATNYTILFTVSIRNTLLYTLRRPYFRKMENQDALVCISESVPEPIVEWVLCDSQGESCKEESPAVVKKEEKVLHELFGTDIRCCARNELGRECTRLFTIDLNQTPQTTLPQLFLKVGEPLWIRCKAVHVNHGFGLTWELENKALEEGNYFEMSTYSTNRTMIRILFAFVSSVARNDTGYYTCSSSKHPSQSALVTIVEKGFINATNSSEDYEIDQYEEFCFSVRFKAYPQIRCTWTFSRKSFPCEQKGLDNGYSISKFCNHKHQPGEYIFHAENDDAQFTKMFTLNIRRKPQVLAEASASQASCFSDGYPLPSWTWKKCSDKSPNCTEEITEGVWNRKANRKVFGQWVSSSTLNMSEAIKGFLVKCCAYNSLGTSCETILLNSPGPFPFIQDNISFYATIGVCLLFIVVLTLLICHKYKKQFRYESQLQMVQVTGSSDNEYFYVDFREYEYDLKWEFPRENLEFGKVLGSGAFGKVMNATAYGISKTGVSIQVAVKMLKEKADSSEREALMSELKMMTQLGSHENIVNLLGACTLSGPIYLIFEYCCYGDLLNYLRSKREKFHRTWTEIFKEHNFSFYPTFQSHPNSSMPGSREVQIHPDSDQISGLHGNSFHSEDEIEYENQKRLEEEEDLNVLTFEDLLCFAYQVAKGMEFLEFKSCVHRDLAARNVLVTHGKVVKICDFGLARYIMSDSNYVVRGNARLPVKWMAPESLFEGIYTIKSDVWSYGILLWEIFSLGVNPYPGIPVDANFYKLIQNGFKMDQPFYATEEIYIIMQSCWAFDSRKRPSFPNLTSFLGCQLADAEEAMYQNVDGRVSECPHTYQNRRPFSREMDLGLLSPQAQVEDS
As to the kind of experiment: Cell proliferation assay (CellTiter-Glo), engineered BA/F3 cells. The format is cell-based, murine. The note with it: BaF3 FLT3 ITD/D835Y cells, 3d-Growth; read-out: BaF3_FLT3 ITD/D835Y 3d-Growth: IC50. A digest of the protocol: as §1

In patent publication US9938273B2 (Plexxikon Inc., priority 2015, dated 2018) one finds IC50 and GI50 data, which are given here for 18 compounds.

In the case of `CN[C@@H]1CCN(C(=O)c2ccc(-c3cnc4[nH]c(-c5ccccc5)cc4c3)s2)C1` [Compound P-0106, [(3R)-3-(methylamino)pyrrolidin-1-yl]-[5-(2-phenyl-1H-pyrrolo[2,3-b]pyridin-5-yl)-2-thienyl]methanone], the IC50 in test [1] and in test [2] was 0.0001 to 10 µM throughout. The GI50 in test [3] was 0.0001 to 10 µM.

In the case of `O=S(=O)(NC1CC1)c1cccc(-c2cnc3[nH]c(-c4ccccc4)cc3c2)n1` [Compound P-0109, N-cyclopropyl-6-(2-phenyl-1H-pyrrolo[2,3-b]pyridin-5-yl)pyridine-2-sulfonamide], the IC50 in test [1] and in test [2] was 0.0001 to 10 µM each time. The GI50 in test [3] was in the range of 0.0001 to 10 µM.

For `N#CC1(NC(=O)c2cccc(-c3cnc4[nH]c(-c5ccccc5)cc4c3)n2)CC1` [Compound P-0111, N-(1-cyanocyclopropyl)-6-(2-phenyl-1H-pyrrolo[2.3-b]pyridin-5-yl]pyridine-2-carboxamide], the IC50 in test [1] and in test [2] was 0.0001 to 10 µM throughout. Also, the GI50 in test [3] is 0.0001 to 10 µM.

In the case of `O=C(c1cccc(-c2cnc3[nH]c(-c4cnn(CC(F)(F)F)c4)cc3c2)n1)N1CCC(F)(F)C1` [Compound P-0112, (3,3-difluoropyrrolidin-1-yl)-[6-[2-[1-(2,2,2-trifluoroethyl)pyrazol-4-yl]-1H-pyrrolo[2,3-b]pyridin-5-yl]-2-pyridyl]methanone], the IC50 in test [1] and in test [2] was 0.0001 to 10 µM each time. The GI50 in test [3] lay within 0.0001 to 10 µM.

Consider `CC(C)(C#N)CNC(=O)c1cccc(-c2cnc3[nH]c(-c4cnn(CC(F)(F)F)c4)cc3c2)n1` [Compound P-0113, N-(2-cyano-2-methyl-propyl)-6-[2-[1-(2,2,2-trifluoroethyl)pyrazol-4-yl]-1H-pyrrolo[2,3-b]pyridin-5-yl]pyridine-2-carboxamide], for which the IC50 in test [1] and in test [2] was 0.0001 to 10 µM in each case. The GI50 in test [3] was 0.0001 to 10 µM.

Regarding `N#CC1(NC(=O)c2cccc(-c3cnc4[nH]c(-c5ccccc5)cc4c3)n2)CCC1` [Compound P-0114, N-(1-cyanocyclobutyl)-6-(2-phenyl-1H-pyrrolo[2,3-b]pyridin-5-yl)pyridine-2-carboxamide], the IC50 in test [1] and in test [2] was 0.0001 to 10 µM each time. The GI50 in test [3] lay in the range of 0.0001 to 10 µM.

For `N#CC1(F)CCN(C(=O)c2cccc(-c3cnc4[nH]c(-c5ccccc5)cc4c3)n2)C1` (stereo not shown) [Compound P-0115, 3-fluoro-1-[6-(2-phenyl-1H-pyrrolo[2,3-b]pyridin-5-yl)pyridine-2-carbonyl]pyrrolidine-3-carbonitrile], the IC50 in test [1] and in test [2] was 0.0001 to 10 µM in each case. Moreover, the GI50 in test [3] fell in the range of 0.0001 to 10 µM.

For `CC(C)(C#N)NC(=O)c1cccc(-c2cnc3[nH]c(-c4ccccc4)cc3c2)n1` [Compound P-0118, N-(1-cyano-1-methyl-ethyl)-6-(2-phenyl-1H-pyrrolo[2,3-b]pyridin-5-yl)pyridine-2-carboxamide], the IC50 in test [1] and in test [2] was 0.0001 to 10 µM in each case. For the same compound, the GI50 in test [3] was in the range of 0.0001 to 10 µM.

As to `N#C[C@@H]1CCN(C(=O)c2cccc(-c3cnc4[nH]c(-c5ccccc5)cc4c3)n2)C1` [Compound P-0122, (3R)-1-[6-(2-phenyl-1H-pyrrolo[2,3-b]pyridin-5-yl)pyridine-2-carbonyl]pyrrolidine-3-carbonitrile], the IC50 in test [1] and in test [2] was 0.0001 to 10 µM each time. Also, the GI50 in test [3] fell in the range of 0.0001 to 10 µM.

Turning to `CC(C)(C#N)CNC(=O)c1cccc(-c2cnc3[nH]c(C4=CCCCC4)cc3c2)n1` [Compound P-0123, N-(2-cyano-2-methyl-propyl)-6-[2-(cyclohexen-1-yl)-1H-pyrrolo[2,3-b]pyridin-5-yl]pyridine-2-carboxamide], the IC50 in test [1] and in test [2] was 0.0001 to 10 µM each time. For the same compound, the GI50 in test [3] lay within 0.0001 to 10 µM.

`CC(C)(C#N)NC(=O)c1cccc(-c2cnc3[nH]c(C#Cc4ccccc4)cc3c2)n1` [Compound P-0176, N-(1-cyano-1-methyl-ethyl)-6-[2-(2-phenylethynyl)-1H-pyrrolo[2,3-b]pyridin-5-yl]pyridine-2-carboxamide]: the IC50 in test [1] and in test [2] was 0.0001 to 10 µM each time.

As to `Cc1nn(C(C)C)cc1-c1cc2cc(-c3cccc(C(=O)NC(C)(C)C#N)n3)cnc2[nH]1` [Compound P-0178, N-(1-cyano-1-methyl-ethyl)-6-[2-(1-isopropyl-3-methyl-pyrazol-4-yl)-1H-pyrrolo[2,3-b]pyridin-5-yl]pyridine-2-carboxamide], the IC50 in test [1] and in test [2] was 0.0001 to 10 µM each time.

In the case of `CC(C)(C#N)NC(=O)c1cccc(-c2cnc3[nH]c(C4=CCSCC4)cc3c2)n1` [Compound P-0180, N-(1-cyano-1-methyl-ethyl)-6-[2-(3,6-dihydro-2H-thiopyran-4-yl)-1H-pyrrolo[2,3-b]pyridin-5-yl]pyridine-2-carboxamide], the IC50 in test [1] and in test [2] was 0.0001 to 10 µM throughout.

As for `CC(C)(C#N)NC(=O)c1cccc(-c2cnc3[nH]c(C4=CCN(C(=O)C5CC5)CC4)cc3c2)n1` [Compound P-0181, N-(1-cyano-1-methyl-ethyl)-6-[2-[1-(cyclopropanecarbonyl)-3,6-dihydro-2H-pyridin-4-yl]-1H-pyrrolo[2,3-b]pyridin-5-yl]pyridine-2-carboxamide], the IC50 in test [1] and in test [2] was 0.0001 to 10 µM each time.

As to `CC(C)(C#N)NC(=O)c1cccc(-c2cnc3[nH]c(C4=CCNCC4)cc3c2)n1` [Compound P-0182, N-(1-cyano-1-methyl-ethyl)-6-[2-(1,2,3,6-tetrahydropyridin-4-yl)-1H-pyrrolo[2,3-b]pyridin-5-yl]pyridine-2-carboxamide], the IC50 in test [1] and in test [2] was 0.0001 to 10 µM in each case.

As to `CC(C)(C#N)NC(=O)c1cccc(-c2cnc3[nH]c(-c4cn[nH]c4)cc3c2)n1` [Compound P-0183, N-(1-cyano-1-methyl-ethyl)-6-[2-(1H-pyrazol-4-yl)-1H-pyrrolo[2,3-b]pyridin-5-yl]pyridine-2-carboxamide], the IC50 in test [1] and in test [2] was 0.0001 to 10 µM each time.

Turning to `CC(C)(C#N)NC(=O)c1cccc(-c2cnc3[nH]c(-c4cnn(C5CCNCC5)c4)cc3c2)n1` [Compound P-0187, N-(1-cyano-1-methyl-ethyl)-6-[2-[1-(4-piperidyl)pyrazol-4-yl]-1H-pyrrolo[2,3-b]pyridin-5-yl]pyridine-2-carboxamide], the IC50 in test [1] and in test [2] was 0.0001 to 10 µM each time.

On to `CC(C)(C#N)NC(=O)c1cccc(-c2cnc3[nH]c(C4=CCN(S(=O)(=O)C5CC5)CC4)cc3c2)n1` [Compound P-0188, N-(1-cyano-1-methyl-ethyl)-6-[2-(1-cyclopropylsulfonyl-3,6-dihydro-2H-pyridin-4-yl)-1H-pyrrolo[2,3-b]pyridin-5-yl]pyridine-2-carboxamide], for which the IC50 in test [1] and in test [2] was 0.0001 to 10 µM throughout.
